Assay results published in patent US20240207308A1, “METHOD FOR CULTURING DENDRITIC CELLS” (NANOFAENTECH CO., LTD., priority 2021, published 2024).

Experiments:
Type in all cases: cell-based, mouse
[1] = test system: spleen dendritic cells; experiment: Flow cytometry of CD86, MHC-II, CD80, CD40 on cultured spleen dendritic cells (self-activation)
Protocol: Mouse spleen dendritic cells were obtained by adding EDTA-BSS (Balanced Salt Solution) buffer and collagenase solution (DMEM containing 100 units of collagenase type IV, medium containing low glucose) to spleens of female C57BL/6 mice and cutting it with surgical scissors, mixing the same with 6 mL of collagenase treatment solution, and incubating the mixture for 30 minutes. The separated whole spleen tissue was filtered using a 70 μm cell strainer (Falcon), followed by centrifugation at 1800 rpm for 5 minutes thus to separate the cells. Red blood cells were removed by adding red blood cell lysis buffer (Sigma-Aldrich) to the cells and washed twice with RPMI-1640 medium containing 10% fetal bovine serum (FBS). Dendritic cells were reacted with CD11c^+ antibody-bound microbeads and isolated using CD11c Microbeads Ultrapure (MACS, Milteni Biotec, USA).
In FIG. 2, in order to determine whether self-activation occurs when primary dendritic cells isolated from the spleen are cultured, dendritic cells were dispensed in a 24-well plate at 2×10^5/mL, and after culturing for 6 hours in RPMI-1640 medium at 37° C. under 5% CO2 condition, the expression levels of MHC-II, CD86, CD80 and CD40 were analyzed on the surface of dendritic cells using a flow cytometer (MACSQuant VYB flow cytometer, Miltenyi Biotec). Results measured using a flow cytometer were analyzed using FlowJo v10 (Tree Star, Ashland). The expression levels of CD86, CD80 and CD40 were shown as the percentage of cells stained with CD11c, and the expression level of MHC-II was shown as mean fluorescence intensity (MFI), which is the mean fluorescence intensity of fluorescence.
In FIG. 7, when culturing spleen dendritic cells, each of the prepared peptides was added at a concentration of 200 μg/mL and the expression level of CD86 was measured 6 hours after culture. When each peptide was used alone for treatment, the expression of CD86 was not inhibited in spleen dendritic cells. […] Compared to when the cells were treated with these three kinds of peptides, the expression was not inhibited even when the two kinds of peptides were used together for treatment. * indicates statistical significance as P<0.05 or less compared to the P1, P1-2, and P2-1 conditions.
In FIG. 9, peptides containing P1 and P2 and amino acids of these peptides as well as P3 peptide in a combination of three types were added to the spleen dendritic cell culture medium, and after culturing for 6 hours, the expression level of CD86 was measured by flow cytometry.
In FIG. 24, different concentrations of LP1, LP2 and LP3 were added to reach a concentration of 800 μg/mL, and spleen dendritic cells (2×10^5/mL) were cultured for 6 hours or 24 hours, and the CD86 expression level was measured by flow cytometry (MACSQuant VYB flow cytometer, Miltenyi Biotec). The measured results were analyzed using FlowJo v10 (Tree Star, Ashland).
In FIG. 25, when spleen primary dendritic cells were dispensed at 2×10^5/mL and cultured for 24 hours while scrambled peptides of S-LP1, S-LP2 and S-LP3 were each added at a concentration of 800 μg/mL, the increase in the expression of CD86 was not inhibited. Further, the expression of CD86 was not reduced even when the scrambled peptides S-P1, S-P2 and S-P3 were simultaneously treated at a concentration of 600 μg/mL, respectively.

[2] = test system: bone marrow-derived dendritic cells; experiment: ELISA of TNF-α and IL-12p40 from LPS-stimulated bone marrow-derived dendritic cells; conditions: BMDC, 24 hours, LPS 1 μg/mL
Protocol: Mouse bone marrow-derived dendritic cells were obtained by differentiation from mouse bone marrow precursor cells. The femur and tibia of female C57BL/6 mouse were removed, and bone marrow was isolated using 10 mL of EDTA:BSS (Balanced Salt Solution) buffer containing 2% FBS. Red blood cells were removed with erythrocyte lysis buffer (Sigma-Aldrich), washed with EDTA:BSS buffer, followed by filtering cells using a 70 μm cell strainer (Falcon). Cells at 3×10^6/mL were dispensed in a 6-well plate, and interleukin-4 (20 ng/ml) (JW Creagene, Korea) and GM-CSF (20 ng/ml) (JW Creagene) were added and cultured for 7 days to induce differentiation. Differentiated dendritic cells were reacted with microbeads bound with CD11c antibody (eBioscience), was separated using CD11c Microbeads Ultrapure (MACS, Milteni Biotec), and then cultured.
In FIG. 19, when fibronectin was administered by concentration while culturing bone marrow-derived dendritic cells for 24 hours, it could be seen that the secretion of TNF-α and IL-12p40 by LPS (1 μg/mL) was inhibited from a concentration of 100 μg/mL. * indicates statistical significance as P<0.05 or less compared to 0 μg/mL concentration.

[3] = test system: spleen dendritic cells and T cells; experiment: ELISA of cytokines after 4 days co-culture of spleen dendritic cells and allogeneic T cells; conditions: dendritic cells activated with LPS and poly (I:C), co-culture 4 days
Protocol: Since the main role of activated dendritic cells is to induce antigen-specific T-cell activation and proliferation according to the stimulatory properties, it was investigated whether self-activated dendrite cells after culturing and dendritic cells activated with LPS after culturing with addition of peptides can induce T cell proliferation by mixed lymphocyte reaction (MLR) test. The spleen dendritic cells isolated from C57B/L6 mice were self-activated for 24 hours, otherwise, when cultured with addition of peptides or fibronectin, the cells were treated with LPS and activated. Spleen T cells from Balb/c mice were isolated using a CD4^+/CD8^+ T cell isolation kit (Miltenyi Biotec, Bergisch-Gladbach, Germany) and MACS column (Miltenyi Biotec), followed by 10 μM CFSE staining (Molecular Probes; Thermo Fisher Scientific Inc., USA). The activated dendritic cells and CFSE-stained T cells were co-cultured at a ratio of 1:20 for 4 days, and the T cell proliferation level was measured as a percentage of cells with decreased CFSE. […] In FIG. 22, the amount of cytokines secreted after co-culture of spleen dendritic cells and T cells for 4 days was measured by ELISA method. […]

## fibronectin
[1]; 200 μg/mL (laminin 200 μg/mL or higher), cultured 6 hours
  expression level of CD86 or MHC-II (self-activation): self-activation did not occur
[1]; 200 μg/mL, cultured 6 hours
  expression of CD86 and MHC-II as well as CD80 and CD40: not increased
[1]; cultured 6 hours
  concentration most effective for self-activation of spleen dendritic cells: 200 µg/mL
[1]; cultured 6 hours or 24 hours, peptides 200 μg/mL each
  expression of MHC-II, CD80 and CD40 in addition to CD86: significantly inhibited
[2]
  concentration from which the secretion of TNF-α and IL-12p40 by LPS was inhibited: ≥ 100 µg/mL
[3]
  secretion of IFN-γ, IL-6, TNF-α and IL-5: extremely low
